Values joined by “and” are separate entries in the source; they are usually repeats but may differ in a detail not shown here. Identical values can stand only once. Like-named read-outs stand apart in the source and are kept apart here.
Columns and labels:
[1] = target: T1, VCB: PROTAC: SMARCA2^BD ternary complex (Homo sapiens, UniProt P51531); assay: TR-FRET ternary complex affinity and cooperativity, SMARCA2; format: binding
T1 construct: P51531-2, residues 1373-1493 with additional N-terminal SM residues; GST (TEV site) (N); His6 (TEV site) (N, cleaved yes); made in house; host or cells: SMARCA2^BD: Escherichia coli BL21(DE3)
T1 sequence (P51531 with tags, fused parts or gaps isoform P51531-2): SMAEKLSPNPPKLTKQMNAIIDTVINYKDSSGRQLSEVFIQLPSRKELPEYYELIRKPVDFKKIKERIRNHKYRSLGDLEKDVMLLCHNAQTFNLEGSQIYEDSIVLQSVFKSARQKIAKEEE

[2] = target: T2, PBRM1 BD (Homo sapiens, UniProt Q86U86); assay: TR-FRET binary and ternary (PROTAC + VCB) affinity, PBRM1 bromodomain; format: binding; conditions: individual replicates
T2 construct: GST (TEV site) (N); made in house; host or cells: Escherichia coli BL21(DE3)

[3] = target: T3, PBRM1BD5 (Homo sapiens, UniProt Q86U86); assay: TR-FRET ternary complex affinity and cooperativity, PBRM1; format: binding; conditions: TR-FRET competition for PBRM1BD5, without VCB; mean ± SD; read-out: TR-FRET PBRM1BD EC50
T3 construct: GST (TEV site) (N); His6 (TEV site) (N, cleaved yes); made in house; host or cells: PBRM1^BD5: Escherichia coli BL21(DE3)
T3 sequence (Q86U86 645-766): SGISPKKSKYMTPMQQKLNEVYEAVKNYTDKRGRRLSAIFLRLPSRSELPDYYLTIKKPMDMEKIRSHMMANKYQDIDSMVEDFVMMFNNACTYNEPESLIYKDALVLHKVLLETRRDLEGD

[4] = target: T4, SMARCA4 (Homo sapiens, UniProt P51532); assay: SMARCA4 capillary electrophoresis protein assay in RKO cells; format: cell-based; parameters: endogenous in cells; host or cells: RKO, HCT116, LU99, HCC-364, HCT-15, HCC4006, SK-N-AS; conditions: mean ± SD
T4 sequence (P51532 whole entry): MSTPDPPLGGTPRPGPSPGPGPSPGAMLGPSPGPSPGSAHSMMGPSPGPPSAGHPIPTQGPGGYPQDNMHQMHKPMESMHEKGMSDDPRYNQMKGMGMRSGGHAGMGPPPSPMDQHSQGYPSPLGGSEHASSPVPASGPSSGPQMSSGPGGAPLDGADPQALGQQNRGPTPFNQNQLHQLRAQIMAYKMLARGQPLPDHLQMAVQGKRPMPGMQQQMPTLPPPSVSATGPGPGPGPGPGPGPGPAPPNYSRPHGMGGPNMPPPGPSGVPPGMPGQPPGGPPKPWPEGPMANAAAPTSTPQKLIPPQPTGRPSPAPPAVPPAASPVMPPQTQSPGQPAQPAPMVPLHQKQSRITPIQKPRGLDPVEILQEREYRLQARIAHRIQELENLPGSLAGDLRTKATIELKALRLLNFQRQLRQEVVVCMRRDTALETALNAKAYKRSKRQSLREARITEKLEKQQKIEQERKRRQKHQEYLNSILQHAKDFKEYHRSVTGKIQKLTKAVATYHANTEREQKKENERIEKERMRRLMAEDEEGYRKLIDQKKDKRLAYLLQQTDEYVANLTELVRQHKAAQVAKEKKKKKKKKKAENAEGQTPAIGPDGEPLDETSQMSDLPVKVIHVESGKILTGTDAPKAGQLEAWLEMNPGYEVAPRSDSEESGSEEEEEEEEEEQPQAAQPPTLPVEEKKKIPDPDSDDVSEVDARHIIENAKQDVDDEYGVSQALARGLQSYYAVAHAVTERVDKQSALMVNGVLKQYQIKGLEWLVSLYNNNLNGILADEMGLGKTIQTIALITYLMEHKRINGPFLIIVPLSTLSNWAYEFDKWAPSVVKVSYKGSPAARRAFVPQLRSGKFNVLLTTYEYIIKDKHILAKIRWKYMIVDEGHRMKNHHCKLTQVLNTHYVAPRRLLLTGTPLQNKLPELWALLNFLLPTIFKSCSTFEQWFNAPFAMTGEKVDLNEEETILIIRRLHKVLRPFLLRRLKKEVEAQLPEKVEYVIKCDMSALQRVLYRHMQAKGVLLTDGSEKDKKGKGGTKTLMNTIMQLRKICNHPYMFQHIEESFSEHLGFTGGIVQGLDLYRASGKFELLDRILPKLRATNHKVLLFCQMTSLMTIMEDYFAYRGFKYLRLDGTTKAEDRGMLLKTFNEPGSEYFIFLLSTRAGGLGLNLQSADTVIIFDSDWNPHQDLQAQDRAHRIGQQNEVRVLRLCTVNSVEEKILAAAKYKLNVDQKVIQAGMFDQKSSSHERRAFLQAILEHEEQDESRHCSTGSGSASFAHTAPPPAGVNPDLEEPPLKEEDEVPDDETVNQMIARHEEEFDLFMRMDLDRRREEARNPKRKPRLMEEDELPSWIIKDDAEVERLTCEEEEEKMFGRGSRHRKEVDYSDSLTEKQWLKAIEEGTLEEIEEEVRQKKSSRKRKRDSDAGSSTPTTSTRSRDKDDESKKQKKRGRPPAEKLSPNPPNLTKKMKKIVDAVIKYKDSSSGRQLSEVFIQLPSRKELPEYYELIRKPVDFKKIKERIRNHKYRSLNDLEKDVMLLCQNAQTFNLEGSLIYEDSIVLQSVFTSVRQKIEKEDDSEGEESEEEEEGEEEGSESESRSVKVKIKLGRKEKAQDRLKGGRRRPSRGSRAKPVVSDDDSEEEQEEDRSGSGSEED
Procedure: 130,000–200,000 cells were seeded in 24-well plates and incubated until settled down or overnight. Compounds were dissolved in DMSO and added to cells in indicated concentrations using a digital dispenser following an optional media change. Cells were incubated for 4 or 18 h as indicated. For SMARCA2/4 half-life determination, 150,000 or 200,000 cells were seeded in 24-well plates. The next day, 50 µg/ml cycloheximide (Sigma) was added and cells were incubated for 1–24 h. For SMARCA2/4 re-synthesis measurements, 200,000 cells were seeded in 24-well plates. The next day, 100 nM compound 6 was added for 4 h to degrade SMARCA2/4, and a sample was taken as baseline for normalisation. To allow re-synthesis, a VHL binder (compound 32, 25 or 50 µM) was then added for 3 or 24 h. Medium was removed, cells were washed with PBS and lysed with 80 µl Lysis Buffer (MSD Tris Lysis Buffer (#R60TX-2) + Halt Inhibitor Cocktail (100x) + Benzonase 0.5 µL/ml). Samples were frozen at −80 °C and thawed at room temperature before use. Samples were transferred to a V-bottom plate and insoluble debris was pelleted by centrifugation for 5 min at maximum speed. The supernatant was transferred to a fresh plate. Master Mix and Ladder were prepared according to manufacturer’s instructions for 12–230 kDa Wes Separation Module, 8 × 25 capillary cartridges, Protein Simple #SM-W004 with Anti-Rabbit Detection Module for Wes, Peggy Sue or Sally Sue, Protein Simple #DM-001. 4.8 µl lysate were mixed with 1.2 µl Master Mix to achieve a protein concentration of ~0.5 µg/µl. Antibodies were diluted in Antibody Diluent II (SMARCA2 Sigma #HPA029981 RRID:AB_10602406 1:25–100, SMARCA4 Cell Signalling #49360 clone D1Q7F RRID:AB_2728743 1:15–120 or Abcam #ab110641 clone EPNCIR111A RRID:AB_10861578 1:60, GAPDH Abcam #ab9485 RRID:AB_307275 1:250). Wes plates were prepared and run according to manufacturer’s instructions. Proteins were quantified with accompanying Compass Software. SMARCA2/4 protein levels were normalised to GAPDH. […] Where applicable, curves were fitted using a 4-parametric logistic model.

[5] = target: T4, SMARCA4; assay: Imaging-based SMARCA4 protein assay in RKO cells; format: cell-based; parameters: endogenous in cells; host or cells: RKO, HCT116, LU99, HCC-364, HCT-15, HCC4006, SK-N-AS; conditions: individual replicates
Procedure: 1250 cells per well in 60 µl medium were plated in flat bottom, poly-lysin coated 384-well plates (CellCarrier Ultra, Perkin Elmer). The next day, test compounds (10 µl of serial dilutions) and DMSO controls were diluted in DMEM medium such that the final DMSO content was <1% or were added using an ultrasound dispensing system. 4 wells were reserved for a background measurement. […] After aspirating the fixing solution, the cells were washed once with 25 µl PBS. 25 µl of blocking buffer (10% goat serum in PBS) was added and cells were incubated for 30 min, then washed once with PBS. Cells were stained with 20 µl of SMARCA2/4 primary antibody solution (Sigma #HPA029981 RRID:AB_10602406 1:1000 or Cell Signalling #52251 clone E9O6 RRID:AB_2799410 1:1000 in PBS with 10% FCS) for 2–4 h at room temperature. Cells were again washed once with PBS. […] The cell layer was then washed once with 25 µl PBS, the wells were filled with 25 µl PBS and the plates were sealed with an adhesive sheet. They were then imaged on the Opera Phoenix (mean intensity in the nucleus). Results were computed as percent of controls ((value of test compound − background)/(value of the negative control DMSO—background) multiplied by 100). EC50 values were computed using a 4-parametric logistic model.

[6] = target: VCB: PROTAC: SMARCA2^BD ternary complex (Homo sapiens, UniProt P40337+P51531); assay: TR-FRET ternary complex affinity and cooperativity, SMARCA2; format: binding; parameters: P51531-2, residues 1373-1493 with additional N-terminal SM residues; GST (TEV site) (N); His6 (TEV site) (N, cleaved yes); made in house; host or cells: SMARCA2^BD: Escherichia coli BL21(DE3)
Chain of VCB: PROTAC: SMARCA2^BD ternary complex (Homo sapiens, UniProt P40337+P51531) (P51531 with tags, fused parts or gaps isoform P51531-2): as the sequence (P51531 with tags, fused parts or gaps isoform P51531-2) above
Chain of VCB: PROTAC: SMARCA2^BD ternary complex (Homo sapiens, UniProt P40337+P51531) (P40337 54-213): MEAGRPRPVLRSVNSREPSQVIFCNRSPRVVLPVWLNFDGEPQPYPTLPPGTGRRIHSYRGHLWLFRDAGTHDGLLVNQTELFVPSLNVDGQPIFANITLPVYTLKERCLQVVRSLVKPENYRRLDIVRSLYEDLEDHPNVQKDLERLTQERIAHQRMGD
Chain of VCB: PROTAC: SMARCA2^BD ternary complex (Homo sapiens, UniProt P40337+P51531) (Q15369 17-112 partner): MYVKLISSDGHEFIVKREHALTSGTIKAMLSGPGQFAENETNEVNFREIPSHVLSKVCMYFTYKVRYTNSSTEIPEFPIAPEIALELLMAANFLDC
Chain of VCB: PROTAC: SMARCA2^BD ternary complex (Homo sapiens, UniProt P40337+P51531) (Q15370 1-104 partner): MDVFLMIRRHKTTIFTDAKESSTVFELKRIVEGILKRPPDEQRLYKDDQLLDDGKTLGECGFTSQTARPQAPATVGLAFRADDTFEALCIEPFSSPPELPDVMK

[7] = TR-FRET competition for SMARCA2BD, without VCB, mean ± SD, read-out: TR-FRET SMARCA2BD EC50
[8] = binary, PROTAC alone, individual replicates, read-out: SMARCA2 BD EC50
[9] = PROTAC + VCB, read-out: Ternary PBRM1 BD EC50 (PROTAC + VCB)
[10] = binary, PROTAC alone, read-out: PBRM1 EC50
[11] = 4h, read-out: RKO (4h) SMARCA4 DC50
[12] = PROTAC + VCB, individual replicates, read-out: Ternary SMARCA2 BD EC50 (PROTAC + VCB)
[13] = TR-FRET competition for SMARCA2BD, + VCB, mean ± SD, read-out: TR-FRET Ternary SMARCA2BD EC50 (PROTAC + VCB)

SMILES	EC50 [1, 7] [nM]	EC50 [1, 8]	EC50 [2, 9]	EC50 [2, 10]	EC50 [3] [nM]	DC50 ([4]; RKO (4 h)) [nM]	DC50 ([4]; RKO (18 h)) [nM]	Dmax ([4]; RKO, RKO (18 h)) [%]	DC50 [5, 11] [nM]	DC50 ([5]; 18h, read-out: RKO (18h) SMARCA4 DC50)	EC50 [6, 12]	EC50 [6, 13] [nM]	SMARCA4 Dmax ([4]; RKO (18 h)) [%]
CN1CCC(c2ccc3c(c2)n(C2CCCC2)c2nc(=O)c4c(Br)cccc4n32)CC1 [compound 3]	48 ± 17	41.5 nM (2×) and 50.5 nM (2×) and 46.7 nM (2×) and 58.6 nM (2×) and 54.9 nM and 55.3 nM (2×) and 61.9 nM and 60.8 nM and 59.4 nM and 56.4 nM (2×) and 58.5 nM and 55.9 nM and 44.1 nM (3×) and 66.1 nM and 65.6 nM and 59.3 nM and 60.7 nM and 64.2 nM and 61.1 nM (2×) and 63.1 nM (2×) and 72.4 nM and 76.3 nM and 46.2 nM (2×) and 47.7 nM (2×) and 84.8 nM and 89.7 nM and 32 nM and 34.9 nM and 57.7 nM and 57.6 nM and 55.4 nM and 26.3 nM and 29.8 nM and 46.1 nM and 26.7 nM and 39.1 nM and 38.8 nM (2×) and 42.6 nM and 42.2 nM and 43 nM and 27.6 nM and 28.3 nM and 27.5 nM (2×) and 46 nM and 60.6 nM and 42.3 nM and 49.5 nM (2×) and 49.3 nM and 42.8 nM and 48.8 nM and 46.3 nM (2×) and 49.7 nM and 47.2 nM (2×) and 49 nM (2×) and 50.2 nM and 49.2 nM (3×) and 51.2 nM and 50.1 nM (2×) and 51.1 nM and 50.4 nM and 52.4 nM (2×) and 52.5 nM (2×) and 52 nM (2×) and 56.1 nM and 68 nM and 55.7 nM and 52.1 nM and 60.9 nM and 51.8 nM and 47 nM and 47.4 nM and 48.2 nM and 102 nM (2×) and 53.7 nM and 54.7 nM and 56.6 nM (2×) and 44.3 nM (2×) and 47.5 nM and 101 nM and 53.5 nM and 64.4 nM and 66.2 nM and 65.5 nM and 64.6 nM and 64.8 nM and 92.1 nM and 55.6 nM and 55.5 nM and 112 nM and 107 nM and 59.8 nM and 54.4 nM and 32.2 nM and 41.9 nM and 44.7 nM (2×) and 30.9 nM and 79.5 nM and 33.5 nM and 26.9 nM and 33.6 nM and 39.7 nM and 36.7 nM and 36.8 nM and 37.3 nM and 38.4 nM and 51.3 nM and 42.7 nM and 45.1 nM and 46.5 nM and 157 nM and 52.2 nM	49.4 nM and 29.7 nM (2×) and 21.8 nM and 18 nM and 21.3 nM and 22.2 nM and 18.6 nM and 21.6 nM and 46 nM and 35.8 nM and 25 nM and 35.5 nM (2×) and 36.4 nM and 29.1 nM and 25.9 nM and 29.2 nM and 27.1 nM and 30.4 nM (2×) and 31.6 nM and 33.5 nM and 23 nM (2×) and 29.5 nM and 54.4 nM and 51.5 nM and 24 nM and 36.6 nM and 32.2 nM and 65.8 nM and 63.7 nM and 42.6 nM and 25.7 nM and 43.8 nM and 40.2 nM and 16.5 nM and 24.8 nM and 34.1 nM and 26.1 nM and 30.2 nM	27.3 nM and 29.3 nM and 18.1 nM and 21.5 nM and 21.7 nM and 19.9 nM and 23.1 nM and 18.9 nM and 42.5 nM and 22.4 nM and 27 nM and 28.2 nM and 20.7 nM and 30.6 nM and 34 nM (3×) and 32.6 nM and 30.2 nM and 34.7 nM and 36.6 nM and 33.4 nM and 20.8 nM and 53.5 nM and 23.4 nM and 49.7 nM and 23 nM and 24 nM and 38.4 nM and 37.6 nM and 35 nM and 67.5 nM and 70.9 nM and 46.6 nM and 44.1 nM and 25.3 nM and 42.6 nM and 18.7 nM and 31.1 nM and 26.8 nM and 30.5 nM and 40.9 nM	31 ± 12	> 25000	11400	82 ± 32	> 25000	6980 nM and 15500 nM and 13600 nM	47 nM (2×) and 96.4 nM and 69.7 nM and 57.6 nM and 57.7 nM and 58.1 nM and 59.4 nM (2×) and 54.3 nM and 59.7 nM and 63.5 nM (2×) and 58 nM and 45.7 nM (2×) and 61 nM and 62.5 nM and 63 nM and 66 nM and 76.9 nM and 76.2 nM and 50.2 nM (2×) and 85.7 nM and 89.5 nM and 39.5 nM and 43.8 nM and 41.8 nM (2×) and 41.3 nM and 35.6 nM and 36.2 nM (2×) and 55 nM (2×) and 47.9 nM and 37.4 nM and 47.3 nM and 34.2 nM and 38 nM and 43.3 nM and 32.2 nM and 42.1 nM and 43.2 nM and 39.4 nM and 37.7 nM and 41.7 nM (2×) and 32.6 nM and 30.6 nM and 34.7 nM and 32.9 nM and 43.9 nM and 57.4 nM and 44.7 nM and 46.2 nM (5×) and 47.6 nM (2×) and 48.7 nM (3×) and 51.6 nM and 50.9 nM and 44.2 nM and 41.9 nM and 46.5 nM and 46.1 nM (2×) and 48.5 nM and 51.2 nM and 50.5 nM and 49.4 nM and 51.5 nM and 52.8 nM and 52.3 nM and 53.6 nM and 53.3 nM and 52.1 nM (2×) and 54.8 nM (2×) and 53.5 nM (2×) and 45.5 nM and 46.3 nM and 53.7 nM and 51.7 nM and 68.5 nM and 52.7 nM and 51.8 nM and 46.9 nM and 45.4 nM and 45.9 nM and 46.6 nM and 42.5 nM and 55.4 nM and 86.5 nM and 52.6 nM and 56.7 nM and 66.2 nM and 63.7 nM and 65.2 nM and 64.5 nM and 64.2 nM and 64.6 nM and 52.2 nM and 55.3 nM (2×) and 96.6 nM and 109 nM and 107 nM and 55.1 nM and 53 nM and 33.2 nM and 32.3 nM and 23.5 nM and 31.2 nM and 34 nM and 96.8 nM and 36 nM and 36.8 nM and 35.3 nM and 36.1 nM and 36.6 nM and 42.7 nM and 44.4 nM (2×) and 78.2 nM and 158 nM and 48.4 nM and 54 nM and 57.8 nM and 53.1 nM and 58.7 nM	48 ± 17	–
Cc1ncsc1-c1ccc([C@H](CCC(C)(C)CCN2CCC(c3ccc4c(c3)n(C3CCCC3)c3nc(=O)c5c(Br)cccc5n43)CC2)NC(=O)[C@@H]2C[C@@H](O)CN2C(=O)[C@@H](NC(=O)C2(F)CC2)C(C)(C)C)cc1 [compound 30]	260 ± 100	213 nM and 176 nM and > 400 nM and 400 nM and 304 nM	4.23 nM and 6.19 nM and 8.06 nM	111 nM and 105 nM and 192 nM	131 ± 49	> 25000	73 ± 35	–	> 25000	–	45.6 nM and 53.2 nM and 68.1 nM and 44.6 nM and 46.9 nM	51 ± 10	72 ± 7

Reference: PMC9551036, “A selective and orally bioavailable VHL-recruiting PROTAC achieves SMARCA2 degradation in vivo” (Nature Communications, 2022)
